Reference: patent US20240197681A1, “METHODS AND COMPOSITIONS RELATING TO PS[…] SEROTONIN RECEPTOR MODULATORS” (Terran Biosciences Inc., priority 2021, published 2024)
Entries after “also recorded” stand apart in the source; their conditions may differ. Read-outs that look alike come from different tables or passages of the source.

Tests used:
[1] = tested on: hippocampal area CA1 in anesthetized mice; test: In vivo electrophysiology: local field potentials in hippocampal CA1; conditions: for effect of ketanserin pretreatment on psilocybin-induced reduction in low frequency (delta) LFP power: ketanserin 2 mg/kg i.p. 60 minutes before psilocybin 10 mg/kg i.p., 15-25 minutes following psilocybin injection
[2] = tested on: Healthy Volunteers; test: Resting-state fMRI: global brain connectivity (GBC) and functional connectivity (FC); assay type: in vivo, humans; conditions: ketanserin 60 minutes before LSD; for LSD induced neural changes at 300 minutes in the presence of ketanserin: absence of psychotomimetic effects
From the text: The used dataset was acquired in the course of a registered clinical trial (ClinicalTrials.gov Identifier: NCT02451072) entitled: The Role of 5-HT2A Receptor in the Perception of Self and Personal Meaning in Healthy Volunteers. Participants, study design, neuroimaging data acquisition, preprocessing and global brain connectivity calculation are detailed in Preller et al. (eLife. 2018 Oct. 25; 7:e35082. Changes in global and thalamic brain connectivity in LSD-induced altered states of consciousness are attributable to the 5-HT2A receptor, PMID: 30355445). The relevant methodological sections pertinent to the current analysis are summarized below.
24 subjects were included in the dataset (n=19 males; mean age=25.0 years, standard deviation=3.6 years, range=20-34 years). All included subjects were healthy, as confirmed by medical history, physical examination, blood analysis, electrocardiogra Mini-International Neuropsychiatric Interview (MINI-SCID) [Sheehan et al., 1998], the DSM-IV self-rating questionnaire for Axis-II personality disorders (SCIS-II) [Fydrich et al., 1997], and the Hopkins Symptom Checklist (SCL-90R) [Franke, 1995]. Subjects were required to abstain from prescription or illicit drugs, alcohol, smoking and caffeine.
The study was designed as a fully double-blind, randomized, within-subject cross-over study. During a session, subjects were pretreated with either a placebo or the 5-HT2A receptor antagonist Ketanserin 60 minutes before being treated with either a placebo or LSD. Thus, each subject participated in 3 sessions in which they underwent each of the following pretreatment · treatment conditions in a randomized, balanced order: • a) Placebo+placebo • b) Placebo+LSD • c) Ketanserin+LSD Two resting-state scans were performed, one 75 and the other 300 minutes after treatment. To assess participants' experience, a retrospective self-report questionnaire (5D-ASC, [Dittrich, 1998]) was administered 720 minutes after treatment, and a shorter version of the 5D-ASC 180, 250 and 360 minutes after treatment. […]

[3] = tested on: Healthy Volunteers; conditions: cited from earlier work; for subjective (psychotomimetic) LSD effects versus placebo at 360 minutes: 5D-ASC short version
[4] = biological target: T1, 5-HT2A receptor (Mus musculus, UniProt P35363); test: Head twitch response (HTR); assay type: in vivo, mice; conditions: ketanserin 2 mg/kg 60 minutes prior to psilocybin 1 mg/kg, 15 minutes following injection
T1 construct: from tissue; host or cells: live mice (whole animal, brain receptors)
T1 sequence (P35363 whole entry): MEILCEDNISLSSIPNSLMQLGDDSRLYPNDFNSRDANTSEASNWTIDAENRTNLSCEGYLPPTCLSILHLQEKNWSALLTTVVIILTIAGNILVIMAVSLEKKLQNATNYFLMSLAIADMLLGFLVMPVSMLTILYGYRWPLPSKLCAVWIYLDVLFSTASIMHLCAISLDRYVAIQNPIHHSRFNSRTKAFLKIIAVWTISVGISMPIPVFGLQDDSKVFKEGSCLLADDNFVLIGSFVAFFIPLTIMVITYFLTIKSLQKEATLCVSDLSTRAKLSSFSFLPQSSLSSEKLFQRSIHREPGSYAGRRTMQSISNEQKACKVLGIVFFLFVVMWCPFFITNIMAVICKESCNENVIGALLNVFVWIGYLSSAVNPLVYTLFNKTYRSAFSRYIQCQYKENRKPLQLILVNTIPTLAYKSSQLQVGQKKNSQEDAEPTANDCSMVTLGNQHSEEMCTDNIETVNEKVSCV

[5] = tested on: TA-CA1 synapses; test: In vitro electrophysiology: AMPA:NMDA ratios of TA-CA1 fEPSPs in hippocampal slices from treated mice; assay type: in vivo; conditions: ketanserin 2 mg/kg 60 minutes prior to psilocybin 1 mg/kg; CMMS mice
Experimental: Standard methods were used to prepare […] hippocampal slices. Briefly, mice were euthanized via exposure to isoflurane followed by decapitation. Brains were excised and the hippocampus was quickly dissected from the brain and sectioned on a Leica VT1200 series vibratome in ice-cold artificial cerebrospinal fluid (ACSF) bubbled with 95% O2/5% CO2. The ACSF contained: 124 mM NaCl, 3 mM KCl, 1.25 mM NaH2PO4, 1.5 mM MgSO4, 2.5 mM CaCl2, 26 mM NaHCO3, and 10 mM glucose. Slices were allowed to recover for a minimum of 60 minutes at room temperature in ACSF in a humidified interface chamber before recording.
Use of extracellular recording, rather than whole-cell recording, was chosen for quantification of AMPA:NMDA ratios because of the complications of stress-induced changes in dendritic structure and their electrotonic influence on recordings of distal TA-CAI synapses. For quantification of AMPA:NMDA ratios, ACSF was prepared as stated, but without MgSO4, to leave NMDA channels unblocked. […] Five fEPSPs were again collected at the same stimulation intensities recorded prior to DNQX. […]
AMPA:NMDA ratios of the TA-CAI fEPSPs were quantified as described previously (A. J. Kallarackal et al., 2013 J. Neuroscience. 33, 15669-15764) in order to provide a measure of synaptic strength across slices from different mice. […]

[6] = tested on: C57Bl/6J mice; test: Sucrose preference test (SPT) after chronic multimodal stress (CMMS); assay type: in vivo; conditions: stress-susceptible male mice after 10-14 days CMMS; single drug (psilocybin 1 mg/kg i.p. or ketanserin 2 mg/kg i.p.) plus vehicle injection; 24-48 hours after injection
[7] = tested on: C57Bl/6J mice; test: Female urine sniff test (FUST) after chronic multimodal stress (CMMS); assay type: in vivo; conditions: stress-susceptible male mice after 10-14 days CMMS; single drug (psilocybin 1 mg/kg i.p. or ketanserin 2 mg/kg i.p.) plus vehicle injection; 24-48 hours after injection
[8] = tested on: C57Bl/6J mice; test: Locomotion in open field arena; conditions: ketanserin 2 mg/kg 60 minutes prior to psilocybin 5 mg/kg

Row | Structure (SMILES) | time of peak effect on low frequency LFP activity following psilocybin injection ([1]; psilocybin 10 mg/kg) [min] | duration of decrease of delta band power ([1]; psilocybin 10 mg/kg, i.p.) [min] | time to decrease of delta band power ([1]; psilocybin 10 mg/kg, i.p.) [min] | LSD induced neural changes at 300 minutes in the presence of ketanserin [2] | subjective (psychotomimetic) LSD effects versus placebo at 360 minutes ([3]; FIG. 20 reprinted from Preller 2018) | subjective (psychotomimetic) LSD effects versus placebo at 360 minutes ([3]; FIG. 20 reprinted from Preller 2018, listed as Pla+LSD) | self-reported altered states of consciousness (5D-ASC short version) ([3]; 180, 250 and 360 minutes after second drug administration, FIG. 20 reprinted from Preller 2018) | effect of ketanserin pretreatment on LSD-induced neural changes at 75 minutes [2] | effect of ketanserin pretreatment on psilocybin-induced head-twitching (5-HT2A receptor activation) [4] | effect of ketanserin pretreatment on psilocybin-induced head-twitching (5-HT2A receptor activation) ([4]; listed as Ketanserin) | effect of ketanserin pretreatment on the ability of psilocybin to restore AMPA:NMDA ratios [5] | sucrose preference (SP) compared to values after CMMS [6] | effect of ketanserin pretreatment on psychotomimetic (behavioral) effects of LSD ([3]; ketanserin 60 minutes before LSD, all timepoints) | effect of ketanserin pretreatment on psilocybin-induced reduction in low frequency (delta) LFP power [1] | effect of ketanserin pretreatment on psilocybin-induced reduction in low frequency (delta) LFP power ([1]; listed as Ketanserin) | female urine preference compared to values after CMMS [7] | effect of ketanserin pretreatment on locomotion [8]
1 | CN(C)CCc1c[nH]c2cccc(OP(=O)(O)O)c12 [psilocybin] | 15 to 25 | > 60 | ≤ 15 | – | – | – | – | – | – | – | – | – | – | – | – | – | –
2 | CCN(CC)C(=O)[C@@H]1C=C2c3cccc4[nH]cc(c34)C[C@H]2N(C)C1 [LSD, lysergic acid diethylamide] | – | – | – | reached near full effect within 300 minutes | still intense and high above placebo | still significantly elevated from placebo | substantial self-reported altered states of consciousness | – | – | – | – | – | – | – | – | – | –
3 | O=C(c1ccc(F)cc1)C1CCN(CCn2c(=O)[nH]c3ccccc3c2=O)CC1 [ketanserin] | – | – | – | did not block the neural changes induced by LSD | – | – | – | many of the immediate neural changes induced by LSD at 75 minutes | prevents head-twitching; also recorded: sufficiently blocked 5-HT2A receptors; also recorded: sufficiently attenuated the activation of 5-HT2ARs | block 5-HT2AR-dependent head twitching | did not impair | nor ketanserin alone (p=0.87; n=6) had a significant effect on SP; also recorded: no significant effect | blocked all of the psychotomimetic effects of LSD; also recorded: fully blocked the behavioral effects of LSD | inhibited; also recorded: significantly attenuated | greatly attenuated; also recorded: block | nor ketanserin alone (p=0.072) had a significant effect on female urine preference; also recorded: no significant effect | enhances hypolocomotive effects of psilocybin; also recorded: induced hypo-locomotion
